# Assay results: ChEMBL document CHEMBL1201862, “PubChem BioAssay data set” (2004)
# Calls of active or inactive are those of the source.
# Key:
# Estrogen receptor = biological target: T1, Estrogen receptor (Homo sapiens, UniProt P03372);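 note: potency for inhibiting coactivator peptide recruitment to the receptor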
# T1 sequence (P03372 whole entry): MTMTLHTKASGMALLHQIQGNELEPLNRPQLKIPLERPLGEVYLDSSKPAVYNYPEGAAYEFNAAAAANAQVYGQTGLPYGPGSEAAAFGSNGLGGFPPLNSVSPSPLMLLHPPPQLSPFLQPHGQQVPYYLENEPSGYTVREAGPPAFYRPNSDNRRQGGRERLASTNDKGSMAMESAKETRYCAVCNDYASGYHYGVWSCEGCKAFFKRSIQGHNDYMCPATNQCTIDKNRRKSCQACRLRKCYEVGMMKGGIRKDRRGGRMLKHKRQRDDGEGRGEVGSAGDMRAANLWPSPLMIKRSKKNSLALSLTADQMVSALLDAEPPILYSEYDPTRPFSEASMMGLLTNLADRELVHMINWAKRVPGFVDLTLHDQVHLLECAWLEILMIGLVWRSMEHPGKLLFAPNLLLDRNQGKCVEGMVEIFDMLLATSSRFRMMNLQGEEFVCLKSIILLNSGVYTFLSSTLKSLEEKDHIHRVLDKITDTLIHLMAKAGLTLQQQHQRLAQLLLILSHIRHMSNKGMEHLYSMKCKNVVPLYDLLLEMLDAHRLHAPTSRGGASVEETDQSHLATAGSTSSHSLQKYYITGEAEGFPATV
# [1] = biological target: T2, Heat shock factor protein 1 (Mus musculus, UniProt P38532); experiment: decrease of HSF1-responsive luciferase luminescence – cell-based, NIH3T3, dose retest, confirmation (AID 2382); type: functional;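 note: NIH3T3 fibroblasts with HSF1-driven luciferase reporter stressed by proteasome inhibitor MG132; luminescence from HSF1-driven luciferase expression after 8 hours of MG132 stress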
# T2 sequence (P38532 whole entry): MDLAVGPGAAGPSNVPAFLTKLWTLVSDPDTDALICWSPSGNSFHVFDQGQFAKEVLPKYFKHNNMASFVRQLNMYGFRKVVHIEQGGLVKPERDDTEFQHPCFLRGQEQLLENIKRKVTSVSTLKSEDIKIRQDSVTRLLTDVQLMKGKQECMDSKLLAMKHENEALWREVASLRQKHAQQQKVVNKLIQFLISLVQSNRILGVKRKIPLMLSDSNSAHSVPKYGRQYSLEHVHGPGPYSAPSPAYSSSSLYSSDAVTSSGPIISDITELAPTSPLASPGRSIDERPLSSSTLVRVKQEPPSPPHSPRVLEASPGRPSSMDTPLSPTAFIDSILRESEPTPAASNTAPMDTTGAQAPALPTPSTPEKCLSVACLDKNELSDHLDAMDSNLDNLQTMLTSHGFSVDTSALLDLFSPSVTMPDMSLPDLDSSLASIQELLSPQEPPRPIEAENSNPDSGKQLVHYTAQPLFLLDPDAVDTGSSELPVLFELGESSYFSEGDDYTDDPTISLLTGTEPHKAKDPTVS
# [2] = alpha-synuclein stem-loop luciferase translation blockers – H4 neuroglioma cells, luminescence, confirmation (AID 1988); type: functional, cell-based
# [3] = loss of viability in HepG2 cells – cell-based, CellTiter-Glo, cherry-picked, cytotoxicity control for Shn3 inhibitor project, dose response (AID 624134); type: functional
# [4] = non-specific 3'UTR reporter inhibition in Clone20-Shn3RL – cell-based, Renilla luciferase, cherry-picked, counter-screen for Shn3 inhibitor project, dose response (AID 624133); type: functional
# [5] = luciferase reporter signal suppression in cells – H4 neuroglioma cells, luminescence, dose response (AID 1990); type: functional, cell-based
# [6] = Luminescence Cell-Based Dose Response HTS to Identify Inhibitors of 5'UTR Stem-Loop Driven Prion Protein mRNA Translation in H4 Neuroglioblastoma Cells. [Related pubchem assays: 1827 (Project Summary), 1813 (Primary HTS)]; type: functional
# [7] = biological target: T3, Scavenger receptor class B member 1 (Mus musculus, UniProt Q61009); experiment: mouse SR-BI DiI-HDL uptake blockers – ldlA[mSR-BI] cells, fluorescence, cherry pick, dose response (AID 493194); type: functional, cell-based;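 note: cellular uptake of fluorescent DiI-labeled HDL measured as cell fluorescence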
# T3 sequence (Q61009 whole entry): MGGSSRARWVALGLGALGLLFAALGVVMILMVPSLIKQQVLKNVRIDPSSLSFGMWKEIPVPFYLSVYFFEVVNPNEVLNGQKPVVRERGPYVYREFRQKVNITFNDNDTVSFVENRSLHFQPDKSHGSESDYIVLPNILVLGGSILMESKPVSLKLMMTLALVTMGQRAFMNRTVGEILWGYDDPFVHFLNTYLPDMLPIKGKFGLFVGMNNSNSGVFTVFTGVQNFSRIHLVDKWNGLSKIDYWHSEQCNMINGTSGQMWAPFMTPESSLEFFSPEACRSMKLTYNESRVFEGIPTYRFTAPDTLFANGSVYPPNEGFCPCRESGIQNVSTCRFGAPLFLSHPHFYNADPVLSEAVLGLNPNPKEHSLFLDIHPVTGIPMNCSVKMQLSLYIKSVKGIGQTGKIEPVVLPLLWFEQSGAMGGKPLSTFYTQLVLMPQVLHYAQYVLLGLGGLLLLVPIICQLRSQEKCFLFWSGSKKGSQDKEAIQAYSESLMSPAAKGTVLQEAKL
# [8] = reduction of Shn3 3'UTR-driven luciferase in osteoblasts – cell-based, Clone20 osteoblasts, firefly luciferase, cherry-picked, dose response (AID 624132); type: functional;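 note: firefly luciferase luminescence from reporter carrying the Shn3 3'UTR in osteoblasts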
# HeLa = experiment: viability loss in HeLa cells – cell-based, 24 h, cherry-picked samples, cytotoxicity control, dose response (AID 504726); type: functional; settings: Homo sapiens;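 note: potency for cytotoxicity as loss of luminescence signal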
# ORF 73 = ORF 73 (Human herpesvirus 8, UniProt O40947); experiment: KSHV LANA DNA-binding disruption – biochemical, fluorescence polarization, cherry-picked samples, dose response (AID 504725); design: species or system Human gammaherpesvirus 8;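 note: fluorescence polarization of a labeled DNA duplex reporting LANA DNA binding; potency is for inhibitors that block LANA binding to the DNA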
# Protein S100-A4 = Protein S100-A4 (Homo sapiens, UniProt P26447); experiment: human S100A4 peptide interaction inhibition curves – biochemical, fluorescence polarization, cherry-picked hits, dose response (AID 687001); type: functional
# [9] = viability loss in HeLa cells – cytotoxicity control for MgcRacGAP inhibitor project, dose response (AID 624300); type: functional
# Paired box protein Pax-8 = Paired box protein Pax-8 (Homo sapiens, UniProt Q06710); experiment: PAX8 transcriptional activity inhibition in RMG-I – RMG-I cells, luciferase, cherry-pick, dose response (AID 687027); type: functional, cell-based;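 note: luciferase reporter driven by Pax8 target thyroperoxidase promoter measured by SteadyGlo luminescence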
# [10] = biological target: T4, Rac GTPase-activating protein 1 (Homo sapiens, UniProt Q9H0H5); experiment: blockers of MgcRacGAP-driven Rac1 GTP hydrolysis – biochemical, ADP Hunter fluorescence, primary and confirmatory, confirmation (AID 624330); type: functional
# T4 sequence (Q9H0H5 whole entry): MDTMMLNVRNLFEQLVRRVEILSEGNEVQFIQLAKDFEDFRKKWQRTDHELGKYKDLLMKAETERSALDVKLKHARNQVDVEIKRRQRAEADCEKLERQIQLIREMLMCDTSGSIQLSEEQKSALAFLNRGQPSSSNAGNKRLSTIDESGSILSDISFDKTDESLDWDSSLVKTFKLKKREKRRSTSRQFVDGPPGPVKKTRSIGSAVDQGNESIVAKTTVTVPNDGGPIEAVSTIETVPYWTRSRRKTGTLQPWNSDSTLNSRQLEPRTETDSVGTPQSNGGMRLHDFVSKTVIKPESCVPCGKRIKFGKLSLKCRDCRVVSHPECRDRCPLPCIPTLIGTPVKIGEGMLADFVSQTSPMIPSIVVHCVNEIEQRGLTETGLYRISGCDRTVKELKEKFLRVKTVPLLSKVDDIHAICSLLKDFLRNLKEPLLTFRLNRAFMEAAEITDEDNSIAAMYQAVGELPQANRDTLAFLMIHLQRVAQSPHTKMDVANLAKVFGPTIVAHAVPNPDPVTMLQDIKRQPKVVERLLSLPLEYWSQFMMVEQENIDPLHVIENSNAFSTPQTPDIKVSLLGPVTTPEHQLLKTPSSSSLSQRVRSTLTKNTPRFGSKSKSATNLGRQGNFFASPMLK
# Nonstructural protein 1 = Nonstructural protein 1 (Influenza A virus, UniProt Q194T2); type: functional, Influenza A virus (A/California/07/2009(H1N1))
# [11] = biological target: T5, Kappa-type opioid receptor (Homo sapiens, UniProt P41145); type: functional
# Beta-galactosidase = Beta-galactosidase (Escherichia coli, UniProt Q8VNN2); type: functional
# [12] = biological target: T5, Kappa-type opioid receptor; type: functional; remark: listed apart in the source
# T5 sequence (P41145 whole entry): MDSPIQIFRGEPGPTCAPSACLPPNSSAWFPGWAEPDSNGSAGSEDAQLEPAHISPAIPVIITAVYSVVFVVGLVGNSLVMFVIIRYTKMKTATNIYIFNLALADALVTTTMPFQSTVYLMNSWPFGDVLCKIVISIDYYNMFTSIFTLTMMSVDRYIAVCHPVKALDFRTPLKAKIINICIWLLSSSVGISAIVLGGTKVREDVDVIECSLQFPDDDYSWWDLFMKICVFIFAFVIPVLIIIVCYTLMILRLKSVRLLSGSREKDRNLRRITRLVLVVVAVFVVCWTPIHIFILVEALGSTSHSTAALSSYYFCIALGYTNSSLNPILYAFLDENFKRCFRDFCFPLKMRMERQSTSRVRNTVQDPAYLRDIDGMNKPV
# Chain of Beta-galactosidase (Q8VNN2 whole entry): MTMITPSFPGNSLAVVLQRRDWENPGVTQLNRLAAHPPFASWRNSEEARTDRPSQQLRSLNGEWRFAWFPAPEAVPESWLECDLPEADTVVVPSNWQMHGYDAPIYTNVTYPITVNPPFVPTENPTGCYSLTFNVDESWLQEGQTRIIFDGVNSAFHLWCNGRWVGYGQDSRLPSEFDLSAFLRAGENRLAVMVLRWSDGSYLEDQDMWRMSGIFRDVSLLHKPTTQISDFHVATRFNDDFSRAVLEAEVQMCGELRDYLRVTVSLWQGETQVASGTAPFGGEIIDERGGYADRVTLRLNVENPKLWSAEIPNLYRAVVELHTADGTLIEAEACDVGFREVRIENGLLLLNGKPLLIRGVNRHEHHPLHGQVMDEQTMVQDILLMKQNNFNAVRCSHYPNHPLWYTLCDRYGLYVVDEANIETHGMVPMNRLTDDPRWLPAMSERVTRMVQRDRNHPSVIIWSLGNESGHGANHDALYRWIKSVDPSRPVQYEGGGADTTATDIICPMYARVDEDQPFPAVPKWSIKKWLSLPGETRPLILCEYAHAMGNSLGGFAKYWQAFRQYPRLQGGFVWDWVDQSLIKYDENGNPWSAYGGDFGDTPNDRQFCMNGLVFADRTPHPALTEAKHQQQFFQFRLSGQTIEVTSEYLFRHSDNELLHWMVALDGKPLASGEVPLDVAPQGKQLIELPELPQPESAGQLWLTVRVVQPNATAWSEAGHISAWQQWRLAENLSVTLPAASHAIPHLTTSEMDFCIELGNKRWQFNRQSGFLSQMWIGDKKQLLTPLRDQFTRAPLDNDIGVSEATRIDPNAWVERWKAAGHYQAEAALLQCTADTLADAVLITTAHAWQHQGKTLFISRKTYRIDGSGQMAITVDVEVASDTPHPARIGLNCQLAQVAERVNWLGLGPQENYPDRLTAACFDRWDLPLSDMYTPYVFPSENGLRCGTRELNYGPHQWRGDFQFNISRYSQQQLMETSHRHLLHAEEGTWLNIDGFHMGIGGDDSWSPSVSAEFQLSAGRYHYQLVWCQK
# Chain of ORF 73 (O40947 whole entry): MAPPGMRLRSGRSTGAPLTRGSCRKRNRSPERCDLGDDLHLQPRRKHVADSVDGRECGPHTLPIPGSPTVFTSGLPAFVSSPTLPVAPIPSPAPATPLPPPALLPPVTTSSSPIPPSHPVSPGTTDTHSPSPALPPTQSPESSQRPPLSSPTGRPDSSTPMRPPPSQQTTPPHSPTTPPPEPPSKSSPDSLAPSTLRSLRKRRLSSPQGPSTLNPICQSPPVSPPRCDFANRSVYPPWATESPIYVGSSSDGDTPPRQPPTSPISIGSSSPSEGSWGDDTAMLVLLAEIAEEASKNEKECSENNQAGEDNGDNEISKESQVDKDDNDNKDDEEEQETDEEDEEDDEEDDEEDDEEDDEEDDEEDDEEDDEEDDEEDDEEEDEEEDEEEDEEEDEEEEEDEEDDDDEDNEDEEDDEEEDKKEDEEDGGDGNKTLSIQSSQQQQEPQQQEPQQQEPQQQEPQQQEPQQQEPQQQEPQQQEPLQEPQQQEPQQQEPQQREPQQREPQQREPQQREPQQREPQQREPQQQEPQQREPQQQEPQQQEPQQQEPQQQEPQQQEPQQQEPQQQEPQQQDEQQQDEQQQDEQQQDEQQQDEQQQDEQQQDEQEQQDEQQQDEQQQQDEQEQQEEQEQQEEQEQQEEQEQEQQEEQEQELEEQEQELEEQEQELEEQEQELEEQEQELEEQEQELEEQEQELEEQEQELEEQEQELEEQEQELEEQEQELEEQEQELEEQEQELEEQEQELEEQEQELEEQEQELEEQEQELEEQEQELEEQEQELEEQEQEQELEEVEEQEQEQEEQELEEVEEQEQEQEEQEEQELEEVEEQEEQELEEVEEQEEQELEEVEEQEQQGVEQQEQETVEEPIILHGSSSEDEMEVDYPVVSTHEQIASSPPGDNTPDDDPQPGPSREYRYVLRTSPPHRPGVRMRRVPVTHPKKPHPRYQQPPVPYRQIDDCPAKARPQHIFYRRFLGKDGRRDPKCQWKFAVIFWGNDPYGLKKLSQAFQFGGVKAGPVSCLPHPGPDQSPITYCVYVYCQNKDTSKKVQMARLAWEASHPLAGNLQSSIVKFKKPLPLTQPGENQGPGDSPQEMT
# Chain of Paired box protein Pax-8 (Q06710 whole entry): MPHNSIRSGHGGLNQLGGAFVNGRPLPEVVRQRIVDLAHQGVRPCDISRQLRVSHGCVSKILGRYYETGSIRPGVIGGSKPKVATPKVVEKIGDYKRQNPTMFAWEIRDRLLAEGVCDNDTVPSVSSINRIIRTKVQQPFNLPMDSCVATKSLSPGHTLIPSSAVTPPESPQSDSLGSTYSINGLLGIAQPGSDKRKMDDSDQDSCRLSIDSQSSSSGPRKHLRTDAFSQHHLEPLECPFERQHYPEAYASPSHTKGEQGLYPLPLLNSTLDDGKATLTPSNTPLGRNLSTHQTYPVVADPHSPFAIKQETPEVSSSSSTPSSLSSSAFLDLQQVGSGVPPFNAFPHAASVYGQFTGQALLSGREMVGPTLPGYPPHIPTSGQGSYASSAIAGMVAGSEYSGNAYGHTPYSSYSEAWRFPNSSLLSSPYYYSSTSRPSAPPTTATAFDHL
# Chain of Protein S100-A4 (P26447 whole entry): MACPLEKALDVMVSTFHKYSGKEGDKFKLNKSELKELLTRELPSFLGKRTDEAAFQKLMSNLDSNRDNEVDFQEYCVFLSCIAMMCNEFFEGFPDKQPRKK
# Chain of Nonstructural protein 1 (Q194T2 whole entry): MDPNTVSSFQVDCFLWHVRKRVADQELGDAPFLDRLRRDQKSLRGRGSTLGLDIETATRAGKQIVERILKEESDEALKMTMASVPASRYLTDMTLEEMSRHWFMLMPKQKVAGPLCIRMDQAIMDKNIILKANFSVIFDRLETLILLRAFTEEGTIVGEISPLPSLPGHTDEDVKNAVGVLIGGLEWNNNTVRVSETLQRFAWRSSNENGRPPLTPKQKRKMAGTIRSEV
compound,measurement,setting,value
CCOc1cc(N2CCOCC2)c(OCC)cc1NC(=O)c1cc(-c2ccco2)nc2ccccc12,IC50,Estrogen receptor,14.7 µM (active)
same,EC50,[1],1.21 µM (active)
same,EC50,[2],7.84 µM (active)
same,AC50,[3],53.5 µM (active)
same,AC50,[4],9.78 µM (active)
same,EC50,[5],> 120 µM (not active)
same,EC50,[6],> 120 µM (not active)
same,AC50,[7],46.2 µM (active)
same,AC50,[8],8.94 µM (active)
COc1cccc2c1C(=O)c1c(O)c3c(c(O)c1C2=O)CC(O)(C(C)=NNC(=O)c1ccc(Cl)c(Cl)c1)CC3OC1CC(N)C(O)C(C)O1 (centres undefined),AC50,HeLa,3.38 µM (active)
same,AC50,ORF 73,13.2 µM (active)
same,AC50,Protein S100-A4,0.562 µM (active)
same,CC50,[9],9.6 µM (active)
same,AC50,Paired box protein Pax-8,4.72 µM (active)
same,IC50,[10],54.9 µM (active)
same,IC50,Nonstructural protein 1,3.67 µM (active)
C=CC/N=c1\scc(-c2ccc3c(c2)NC(=O)CO3)n1/N=C(\C)c1ccccn1,IC50,[11],> 32 µM
same,EC50,Beta-galactosidase,> 31.5 µM (inactive)
same,IC50,[12],10.1 µM (active)
